From paper PMC2925244 (Current biology : CB, 2010)

What was measured:
Format in all cases: cell-based
hTAS2R4 = target: T1, hTAS2R4 (Homo sapiens, UniProt Q9NYW5); experiment: calcium imaging in transfected cells, […] GIV3727 against […] colchicine; conditions: read-out: % activation in presence of GIV3727
T1 sequence (Q9NYW5 1-299): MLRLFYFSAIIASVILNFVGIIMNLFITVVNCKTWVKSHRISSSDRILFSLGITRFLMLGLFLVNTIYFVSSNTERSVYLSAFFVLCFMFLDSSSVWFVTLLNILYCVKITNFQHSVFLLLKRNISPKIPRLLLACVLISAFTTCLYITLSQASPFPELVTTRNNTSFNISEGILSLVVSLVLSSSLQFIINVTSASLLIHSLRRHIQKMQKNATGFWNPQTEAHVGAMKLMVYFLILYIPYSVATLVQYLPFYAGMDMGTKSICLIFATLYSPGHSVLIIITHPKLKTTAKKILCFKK

hTAS2R7 = target: T2, hTAS2R7 (Homo sapiens, UniProt Q9NYW3); experiment: calcium imaging in transfected cells, […] GIV3727 against […] cromolyn; conditions: read-out: % activation in presence of GIV3727
T2 sequence (Q9NYW3 1-318): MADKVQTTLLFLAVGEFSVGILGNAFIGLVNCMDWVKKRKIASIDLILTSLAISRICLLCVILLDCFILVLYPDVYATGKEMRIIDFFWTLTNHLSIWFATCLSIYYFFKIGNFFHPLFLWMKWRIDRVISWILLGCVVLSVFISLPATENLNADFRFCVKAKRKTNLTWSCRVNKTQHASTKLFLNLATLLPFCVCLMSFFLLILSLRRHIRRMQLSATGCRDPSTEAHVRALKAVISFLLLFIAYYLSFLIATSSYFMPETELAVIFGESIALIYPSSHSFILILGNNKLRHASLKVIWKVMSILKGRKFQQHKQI

hTAS2R31 = target: T3, hTAS2R31 (Homo sapiens, UniProt P59538); experiment: FLIPR calcium imaging in HEK293 cells stably expressing hTAS2R31 and G16gust44
T3 sequence (P59538 1-309): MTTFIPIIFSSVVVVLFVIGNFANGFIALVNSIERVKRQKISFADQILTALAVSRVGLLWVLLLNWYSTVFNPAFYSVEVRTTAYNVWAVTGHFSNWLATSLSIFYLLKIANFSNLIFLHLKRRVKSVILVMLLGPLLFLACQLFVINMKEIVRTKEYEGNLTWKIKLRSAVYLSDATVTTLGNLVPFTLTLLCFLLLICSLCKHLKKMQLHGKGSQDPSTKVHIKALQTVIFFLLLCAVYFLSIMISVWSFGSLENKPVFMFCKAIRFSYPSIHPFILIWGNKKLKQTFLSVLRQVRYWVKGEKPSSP

hTAS2R43 [1] = target: T4, hTAS2R43 (Homo sapiens, UniProt P59537); experiment: calcium imaging in transfected cells, […] GIV3727 against […] aristolochic acid; conditions: read-out: % activation in presence of GIV3727
T4 sequence (P59537 1-309): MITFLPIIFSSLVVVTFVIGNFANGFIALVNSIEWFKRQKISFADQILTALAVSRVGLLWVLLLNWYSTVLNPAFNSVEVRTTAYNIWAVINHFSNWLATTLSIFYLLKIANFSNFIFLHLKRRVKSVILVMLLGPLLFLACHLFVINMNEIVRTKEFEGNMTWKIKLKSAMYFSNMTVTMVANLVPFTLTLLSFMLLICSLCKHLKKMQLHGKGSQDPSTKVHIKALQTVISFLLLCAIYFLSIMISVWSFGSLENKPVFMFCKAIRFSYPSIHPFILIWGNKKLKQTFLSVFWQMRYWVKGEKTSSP

hTAS2R40 = hTAS2R40 (Homo sapiens, UniProt P59535); experiment: calcium imaging in transfected cells, […] GIV3727 against […] cohumulone; conditions: read-out: % activation in presence of GIV3727
hTAS2R40, sequence (P59535 whole entry): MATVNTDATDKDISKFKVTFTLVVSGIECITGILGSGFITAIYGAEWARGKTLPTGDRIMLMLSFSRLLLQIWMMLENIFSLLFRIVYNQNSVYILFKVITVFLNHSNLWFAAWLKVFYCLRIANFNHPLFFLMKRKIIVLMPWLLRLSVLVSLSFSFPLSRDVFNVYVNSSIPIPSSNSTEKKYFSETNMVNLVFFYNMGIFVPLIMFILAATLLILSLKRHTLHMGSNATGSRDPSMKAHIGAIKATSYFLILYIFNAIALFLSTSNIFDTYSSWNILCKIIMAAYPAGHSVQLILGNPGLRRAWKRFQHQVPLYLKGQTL

hTAS2R43 [2] = target: T4, hTAS2R43; experiment: calcium imaging in transfected cells, agonist at […]

activity at 25 µM (hTAS2R4) [%] | activity at 25 µM (hTAS2R7) [%] | IC50 (hTAS2R31) [µM] | activity at 25 µM (hTAS2R43 [1]) [%] | activity at 25 µM (hTAS2R40) [%] | Structure (SMILES) | calcium imaging in transfected cells, agonist at 0.3 μM (hTAS2R43 [2])
45.8 ± 17.4 | 47.8 ± 17 | 6.4 ± 2.4 | 2.5 ± 4.9 | 3.2 ± 6.5 | CC1CCC(CCCC(=O)O)C1(C)C (stereo not drawn) [GIV3727, 4-(2,2,3-trimethylcyclopentyl)butanoic acid] | 
 |  |  |  |  | COc1cccc2c1cc([N+](=O)[O-])c1c(C(=O)O)cc3c(c12)OCO3 [aristolochic acid] | confers sensitivity to aristolochic acid, which activates hTAS2R43 but is inactive in the native hTAS2R46 (Figure S4)
